Reference: patent US5066489A (Cetus Corporation, priority 1990, dated 1991)

Legend:
[1] = DTIC pharmacokinetics in patients (first two cycles, 12 patients); type: in vivo, human; conditions: effect of IL-2; first two cycles in 12 patients
Procedure: (§1) For the First Cycle--Patients were admitted to the hospital on a Sunday evening for a Hickman catheter placement on the succeeding Monday. On Day 1 (Tuesday), DTIC was administered by continuous 24 hour infusion at a dose of 1.0 gm/m^2 intravenously. Pharmacokinetic studies were performed on Days 1 and 2.
DTIC pharmokinetics were performed on the first two cycles in 12 patients.

metastatic melanoma = conditions: cited from earlier work
[2] = cited from earlier work
[3] = Phase I-II study of IL-2 plus DTIC in melanoma patients: toxicity; type: in vivo, human; conditions: DTIC 1.0 gm/m^2 24 h infusion
Procedure: Patients, between 18 to 70 years of age, were admitted for three, separate Phase I-II studies. Each patient had to meet the following criteria for entering the study:
1. Dose and Schedule--Twenty patients received three cycles of Interleukin-2 in combination with DTIC. Each cycle was 28 days in duration. All drugs were administered by hospital staff either while in-patient or in the out-patient clinic. Patients received 1.0 gm/m^2 of DTIC as an IV continuous infusion over 24 hours every 4 weeks.
as §1
The dose schedule was identical to that given for cycle two.

NC(=O)c1[nH]cnc1N [AIC, 5-aminoimidazole 4-carboxamide]
peak plasma levels [1]: not altered by IL-2

CN(C)N=Nc1[nH]cnc1C(N)=O [DTIC, dimethyl-triazeno-imidazole-carboxmide]
antitumor schedule dependency (metastatic melanoma; DTIC dose regimens): has not been observed | single agent response rate (metastatic melanoma; Roth and Kirkwood (1987)): 24% | most promising response rate (%) observed alone (metastatic melanoma; complete plus partial responses, treatment of melanoma, Roth (DTIC), Rosenberg et al 1987 (IL-2)): approximately 24% | dose responses (metastatic melanoma; five-day continuous infusions): equivalent dose responses | responsiveness of visceral metastases (gastrointestinal tract, liver, brain) (metastatic melanoma; versus soft tissue disease): relatively less responsive than soft tissue disease | hematologic and GI toxicities ([2]; DTIC dose regimen): vary with the DTIC dose regimen used | acute toxicity ([2]; five-day continuous infusions): least acute toxicity | dosage adjustments for nausea/vomiting or for myelosuppression [3]: required no dosage adjustments | mild nausea and vomiting ([3]; of the courses): 96% | peak plasma levels [1]: not altered by IL-2
